Results published in US20170173060A1, “ACTIVATION OF THE ENDOGENOUS ILEAL BRAKE HORMONE PATHWAY FOR ORGAN REGENERATION AND RELATED COMPOSITIONS, METHODS OF TREATMENT, DIAGNOSTICS, AND REGULATORY SYSTEMS” (VOLANT HOLDINGS GMBH, priority 2014, published 2017).
“Also recorded” adds a separate entry of the source.

Assays:
[1] = tested on: MIN-6 cells; settings: cited from earlier work
[2] = 1500 mg taken in three doses of 500 mg; cited from earlier work
[3] = tested on: hypercholesterolemic New Zealand White rabbits; settings: cited from earlier work
[4] = tested on: C57BL/6J mice; settings: 1 mg/kg body weight, cited from earlier work
[5] = tested on: patients with RA; settings: human, in vivo; cited from earlier work
[6] = tested on: high-risk cardiovascular disease (CVD) patients; settings: cited from earlier work
[7] = tested on: people with stable COPD; settings: in vivo; cited from earlier work
[8] = tested on: patients with initial abnormal values; assay: Rate of change of weight, HBA1c, HDL, TG and AST in RYGB, Brake, combination and control patients (FIGS. 18-22); format: in vivo, human
[9] = tested on: patients with metabolic syndrome; assay: FS index of metabolic syndrome tracked over time in patient groups (neural net model); format: in vivo, human
Text: The FS index (Fayad/Schentag) of MS (the relevant equation for which appears in attached FIG. 15) considers the following: Fasting Blood Glucose, Fasting Insulin, HBA1c, BMI, AST, Triglycerides, Glucose Supply-Demand (SD) index, and Proinsulin. Each parameter is mathematically arranged to increase as MS worsens, and weighted approximately equally in the prediction of MS progression and risk for organ damage.
The FS index was then applied to well-studied patient populations already in databases, using a neural net model and the equation set forth in FIG. 15 (and as above). The database included previously published 50 patients with T2D having CV events principally myocardial infarctions, and controls of a precisely matched group of T2D patients without these events (2, 3). […] For each study patient, we had complete access to all raw data, measured vital signs, culture results, and clinician assessments. […]
FS index values were calculated from serial laboratory and clinical data over timeframes ranging between 2 and 10 years. […]
The FS index was applied to well-studied patient populations already in our databases, using a neural net model. […] FS index values were calculated from serial laboratory and clinical data over timeframes ranging 2-10 years. […]

[10] = Case of patient (T2D, chronic hepatitis B, steatosis) on Januvia and Brake; format: in vivo, human; settings: 6 months after stopping Brake, sitagliptin continued
Experimental: Both their Triglycerides and hepatic enzymes were 2-3× elevated. […] Their diabetic control deteriorated on this regimen, to the point where they were considered a candidate for insulin. As an alternative, patient was started on Januvia (sitagliptin) 100 mg per day and 7 pills of Brake™. After 6 months treatment, their HBA1c became normal at 6.0, indicating pancreatic regeneration from the combination product. […] They lost 35 lbs. After 6 months, they stopped the Brake™ therapy but continued sitagliptin. By 6 months later they began to gain weight and their HBA1c rose above 6.0, whereupon they resumed taking Brake™ tablets with return of their HBA1c to normal once again. This case taught the inventors that Brake™ associated organ regeneration is a long lived effect of the combination but not a permanent effect. In fact it is often notable that RYGB patients lose the effects of the surgical procedure after two or more years, and it appears that resumption of dietary indiscretion leads to recrudescence of the metabolic syndrome. Patients are thus advised to be vigilant, particularly if weight gain resumes.

[11] = tested on: human abdominal subcutaneous (AbdSc) adipocytes; settings: cited from earlier work

With `COc1cc(/C=C(\C#N)C(N)=O)cc(CSc2nc3ccccc3s2)c1O` [AG825] as the compound, how does the “effect on BTC proliferative effect” value [1] read?
Its value is “blocked”.

For `COc1cc2ncnc(Nc3cccc(Cl)c3)c2cc1OC` [AG1478], which “effect on BTC proliferative effect” value [1] is on record?
The value was “blocked”.

Which “anti-diabetic effects (biomarkers of type 2 diabetes)” value [2] does the source give for `COc1ccc2cc3[n+](cc2c1OC)CCc1cc2c(cc1-3)OCO2` [Berberine] here?
Its value is “appear to be equal to those of 1500 mg Metformin or 4 mg Glibenclamide”.

Which “decrease of cholesteryl ester enrichment in thoracic aorta” value ([3]; rabbit, in vivo) does the source give for `CCCCCCCCCCC(C)(C)C(=O)Nc1c(OC)cc(OC)cc1OC` [CI-976, 2,2-dimethyl-N-(2,4,6-trimethoxyphenyl) dodecanamide] here?
Its value is 46%.

And the “effect on plasma triglycerides” value ([3]; rabbit, in vivo)?
Its value is “no effect”.

And the “reduction of foam cell area in iliac-femoral lesion” value ([3]; relative to the initiation of intervention, dose that did not lower plasma cholesterol)?
Its value is 27-29%.

With `CC(C)=CCC[C@](C)(O)[C@H]1CC[C@]2(C)[C@@H]1[C@H](O)C[C@@H]1[C@@]3(C)CC[C@H](O[C@@H]4O[C@H](CO)[C@@H](O)[C@H](O)[C@H]4O)C(C)(C)[C@@H]3CC[C@]12C` [GS-Rh2, ginsenoside Rh2] as the compound, how does the “glycemia and glucose tolerance” value ([4]; within 14 days post-PPx) read?
Its value is “improved glycemia and glucose tolerance”.

What about the beta-cell proliferation [4] of the same compound?
Its beta-cell proliferation is “increased beta-cell proliferation percentages”.

With `CN(Cc1cnc2nc(N)nc(N)c2n1)c1ccc(C(=O)N[C@@H](CCC(=O)O)C(=O)O)cc1` [MTX, Methotrexate] as the compound, how does the “risk of CVD events” value [5] read?
The value was “associated with a reduced risk of CVD events”.

For `COc1cc(OC)c2c(=O)[nH]c(-c3cc(C)c(OCCO)c(C)c3)nc2c1` [RVX-208], which “change of ratio of necrotic core to dense calcium (NC/DC)” value ([6]; VH-IVUS, treated patients n=61) is on record?
The value was −7.5%.

What about the “incidence of MACE lower vs. placebo” value ([6]; patients with hsCRP >2.0 mg/dL) of the same compound?
Its value is 63%.

With `O=C(Nc1c(Cl)cncc1Cl)c1ccc(OC(F)F)c(OCC2CC2)c1` [Roflumilast] as the compound, how does the “body weight during the trial period” value [7] read?
The value was “weight loss”.

What does the source list for `CC(C)c1c(C(=O)Nc2ccccc2)c(-c2ccccc2)c(-c2ccc(F)cc2)n1CC[C@@H](O)C[C@@H](O)CC(=O)O` [atorvastatin]?
HDL change ([8]; FIG. 20, control patients mostly atorvastatin 10 mg): essentially no change in HDL; triglyceride (TG) changes ([8]; FIG. 21): either stayed the same or had a minor drop in TG; AST concentrations and rate of change ([8]; FIG. 22): little effect on hepatic inflammation

With `CN(C)C(=N)N=C(N)N` [metformin] as the compound, how does the “parameters that would indicate regeneration” value ([9]; control patients, even at dosages of 2.0 grams daily) read?
Its value is “no significant change”.

What about the “pattern of FS index over time” value ([9]; metformin alone, 61 patients (FIG. 5)) of the same compound?
Its value is “rises; also recorded: flat or slowly rising”.

And the weight change ([8]; FIG. 18)?
Its weight change is “either stayed the same or lost a few pounds”.

And the HBA1c change ([8]; FIG. 19)?
The HBA1c change was “either stayed the same or had a minor drop in HBA1c”.

What about the “effect on metabolic syndrome biomarkers when given alone” value ([8]; FIGS. 18-21 control patients) of the same compound?
The value was “little effect”.

With `N[C@@H](CC(=O)N1CCn2c(nnc2C(F)(F)F)C1)Cc1cc(F)c(F)cc1F` [sitagliptin] as the compound, how does the HBA1c [10] read?
Its HBA1c is “above 6.0”.

Which results are given for lipopolysaccharide [LPS]?
TLR-2 protein expression increase [11]: twofold; TNF-alpha secretion ([11]; control 1.0+/-0.83): 32.8 ± 6.23 pg/mL; IL-6 secretion ([11]; control 2.7+/-0.5): 4.8 ± 0.3 ng/mL
